Laboratory results taken from patent US20040037022A1, “Aminoalcohol derivatives” (priority 2000, published 2004).

Assays:
anesthetized dog = assay: Effect on the increase in intravesical pressure induced by carbachol in anesthetized dog; assay type: in vivo; conditions: 0.32 mg/kg by intra-duodena route 30 minutes before carbachol (1.8 μg/kg); female Beagle dogs under halothane anesthesia; N = 2; Control 7.0 ± 1.0
Experimental: Effect on the increase in intravesical pressure induced by carbachol in anesthetized dog
Female Beagle dogs weighing 8.0-15.0 kg were fasted for 24 hours and maintained under halothane anesthesia. A 12F Foley catheter was lubricated with water soluble jelly, inserted into the urethral orifice and advanced approximately 10 cm until the balloon tip was placed well inside the bladder. The balloon was then inflated with 5 ml of room air and catheter slowly withdrawn just part the first resistance that is felt at the bladder neck. Urine was completely drained out through the catheter, and 30 ml of biological saline was infused. The catheter was connected to pressure transducer, and intravesical pressure was continuously recorded. The test compound was injected by intra-duodena route at 30 minutes before the administration of carbachol (1.8 μg/kg).

Question: For `O=C(Nc1ccc(C[C@@H](CO)NC[C@H](O)COc2ccccc2)cc1)c1ccccc1` [4-(2), N-[4-[(2S)-3-Hydroxy-2-[[(2S)-2-hydroxy-3-phenoxypropyl)amino]propyl]phenyl)benzamide], which melting point is on record?
Answer: 124 to 125 °C

Question: Which melting point does the source give for `CN(C(=O)c1ccccc1)c1ccc(C[C@@H](CO)NC[C@H](O)COc2ccccc2)cc1` [4-(11), N-[4-[(2S)-3-Hydroxy-2-[[(2S)-2-hydroxy-3-phenoxypropyl]amino]propyl]phenyl]-N-methylbenzamide] here?
Answer: 115 to 116 °C

Question: With `CCNC(=O)Nc1ccc(C[C@@H](CO)NC[C@H](O)COc2ccccc2)cc1` [Example 2, N-ethyl-N′-[4-[(2S)-3-hydroxy-2-[[(2S)-2-hydroxy-3-phenoxypropyl]amino]-propyl]phenyl]urea] as the compound, how does the melting point read?
Answer: 129 to 130 °C

Question: For `O=C(Nc1ccc(C[C@@H](CO)NC[C@H](O)COc2ccccc2)cc1)c1ccc[nH]1` [Test Compound (1), N-[4-[(2S)-3-Hydroxy-2-[[(2S)-2-hydroxy-3-phenoxypropyl)amino]propyl]phenyl]-1H-pyrrole-2-carboxamide], which “Increase in intravesical pressure” value (anesthetized dog) is on record?
Answer: 2.6 ± 0.05 mmHg
